Test results as given in publication PMC8069166, “Identification of a Prenyl Chalcone as a Competitive Lipoxygenase Inhibitor: Screening, Biochemical Evaluation and Molecular Modeling Studies” (Molecules, 2021).
“Also recorded” adds a separate entry of the source. Like-named read-outs stand apart in the source and are kept apart here. Blank lines part the entries; values can stand above or below the compound they belong to.

Columns and labels:
[1] = biological target: T1, soybean lipoxygenase-1 (LOX-1) (Glycine max, UniProt P08170); experiment: LOX-1 inhibition, spectrophotometric assay of conjugated diene formed by linoleic acid oxidation; assay type: biochemical
T1 construct: purchased Sigma-Aldrich, Brazil
T1 sequence (P08170 1-839): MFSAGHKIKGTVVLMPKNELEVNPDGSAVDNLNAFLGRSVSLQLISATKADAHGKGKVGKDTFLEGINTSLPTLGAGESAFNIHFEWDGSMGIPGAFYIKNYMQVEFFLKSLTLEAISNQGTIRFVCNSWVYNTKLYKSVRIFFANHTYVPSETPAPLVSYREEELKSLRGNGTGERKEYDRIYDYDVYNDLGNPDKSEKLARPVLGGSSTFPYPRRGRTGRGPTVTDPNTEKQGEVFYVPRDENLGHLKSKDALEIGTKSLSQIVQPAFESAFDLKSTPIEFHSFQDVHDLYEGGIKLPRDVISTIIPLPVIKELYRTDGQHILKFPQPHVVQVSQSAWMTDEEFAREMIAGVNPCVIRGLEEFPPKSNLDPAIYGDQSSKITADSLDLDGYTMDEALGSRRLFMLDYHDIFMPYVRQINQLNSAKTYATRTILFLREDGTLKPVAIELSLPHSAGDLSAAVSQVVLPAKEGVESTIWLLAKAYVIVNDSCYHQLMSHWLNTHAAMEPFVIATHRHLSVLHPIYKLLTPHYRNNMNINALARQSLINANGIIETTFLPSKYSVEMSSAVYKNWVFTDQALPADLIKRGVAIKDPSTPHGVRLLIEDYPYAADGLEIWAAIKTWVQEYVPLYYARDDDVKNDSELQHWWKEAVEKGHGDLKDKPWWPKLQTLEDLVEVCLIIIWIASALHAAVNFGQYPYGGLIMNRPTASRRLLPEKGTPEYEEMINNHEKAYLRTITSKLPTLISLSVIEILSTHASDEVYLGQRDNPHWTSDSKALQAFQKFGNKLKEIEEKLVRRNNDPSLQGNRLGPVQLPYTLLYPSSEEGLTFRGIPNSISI
Procedure: For the in vitro screening to identify the inhibitors of the enzymatic activity of LOX-1, a spectrophotometric assay was employed in order to measure the conjugated diene formed by linoleic acid oxidation. Soybean LOX-1, which converts linoleic acid to 13-hydroperoxylinoleic acid, is inhibited by NSAIDs in a qualitatively similar way to that of the rat mast cell line 5-LOX, and it may be used as a reliable screening target for this activity. The screening was performed with compounds from Brazilian biodiversity (NuBBEDB) and synthetic derivatives previously synthesized by using natural products as models. In this context, a variety of natural products were evaluated, such as triterpenes, chalcones, casearins, alkaloids, guanidines, and flavonoids.
(§1) The ability of chalcones 1–6 to act as LOX-1 inhibitors was evaluated according to a method from Ha et al. (2004). Initially, 2.910 mL Tris-HCl buffer ([…] (pH 8.0), Sigma-Aldrich, Brazil) was added to a quartz cuvette, followed by the addition of 25 μL LOX-1 (final concentration 1 μM, Sigma-Aldrich, Brazil) and 10 μL of the compounds tested (the final concentration ranged from 1 to 20 μM). The solution was incubated for 5 min at 25 °C. The reaction was started with the addition of linoleic acid (55 μL, 1 mM, Sigma-Aldrich, Brazil), and the LOX-1 activity was monitored at λ = 221 nm, pH 8.0, and 25 °C by an absorbance spectrophotometer in UV-Vis (Perkin Elmer Lambda 22, Waltham, MA, USA). For the determination of KM, varying substrate concentrations were used (linoleic acid, 13.7–91.7 µM) and 1 µM LOX-1. […] The spectrophotometric measurements at λ = 221 nm are associated with the conjugated double bonds formed from the linoleic acid substrate.

LOX-1 [2] = biological target: T2, LOX-1 (Glycine max, UniProt P08170); experiment: Enzyme kinetics, mechanism of LOX-1 inhibition; assay type: biochemical, soybean (Glycine max)
T2 sequence (P08170 1-839): T1 sequence (P08170 1-839)
Procedure: as §1

LOX-1 [3] = biological target: T2, LOX-1; experiment: Oxygen consumption by the catalytic activity of LOX (polarography, O2-selective electrode); assay type: biochemical, soybean (Glycine max); details: compound at 10 µM, 25 °C
Description: A polarography-based assay was used to evaluate the rate of the oxygen consumption during LOX-1 inhibition, during which oxygen consumption is associated with the formation of a hydroperoxyl group [28]. In order to evaluate the decrease in oxygen consumption upon LOX-1 inhibition by the prenyl chalcone 6, an O2-selective electrode coupled to an oxygen monitoring probe was employed. […] The oxygen consumption was monitored using an O2-selective electrode coupled to a YSI 5300 Oxygen Monitor (Yellow Springs, OH, USA) at 25 °C. The reactions were initiated by adding O2 (100 μM), followed by the addition of LOX (20 nM) in 0.1 M Phosphate buffered saline (PBS), with pH 7.4 at 25 °C and the compounds being tested [32].

[4] = cited from earlier work
[5] = LOX-1 1 µM, linoleic acid substrate, pH 8.0, 25 °C, mean and standard deviation of three independent experiments, read-out: IC50 for the inhibition of lipoxygenase-1

- IC50 [1, 5]: > 50 µM
Structure (SMILES): O=C(/C=C/c1ccccc1O)c1ccccc1 [Compound 1]

- IC50 [1, 5]: > 50 µM
Structure (SMILES): O=C(/C=C/c1cccc(O)c1)c1ccccc1 [Compound 2]

Structure (SMILES): O=C(/C=C/c1ccc(O)cc1)c1ccccc1 [Compound 3, (E)-4-hydroxychalcone]
- IC50 [1]: > 50 µM

- IC50 [1, 5]: > 50 µM
Structure (SMILES): CC(C)=CCOc1ccccc1/C=C/C(=O)c1ccccc1 [Compound 4, 2-O-prenyl chalcone]

- IC50 [1, 5]: 11.8 ± 0.9 µM
Structure (SMILES): CC(C)=CCC/C(C)=C/COc1cccc(/C=C/C(=O)c2ccccc2)c1 [Compound 5, 3-O-geranyl chalcone]

- mechanism of inhibition (LOX-1 [2]; LOX-1, enzyme kinetics): competitive
- Ki (LOX-1 [2]; increasing concentrations of 6 (5–10 µM), linoleic acid substrate): 7 µM
- IC50 [1, 5]: 5.7 ± 0.8 µM
- fold more potent in LOX-1 inhibition than 2-O-prenyl chalcone (4) ([1]; ratio of IC50 values, versus compound 4): > 10 fold
- oxygen consumption during LOX-1 catalysis (LOX-1 [3]; listed as (E)-2-O-farnesyl chalcone): decreased the rate of oxygen consumption
Structure (SMILES): CC(C)=CCC/C(C)=C/CC/C(C)=C/COc1ccccc1/C=C/C(=O)c1ccccc1 [Compound 6, (E)-2-O-farnesyl chalcone]
- oxygen consumption during LOX-1 catalysis (LOX-1 [3]): delay of the oxygen consumption; also recorded: lower rate of oxygen consumption

- oxygen consumption during LOX-1 catalysis (LOX-1 [3]): lower rate of oxygen consumption
Structure (SMILES): CC(Cc1ccc(O)c(O)c1)C(C)Cc1ccc(O)c(O)c1 (stereo not shown) [Nordihydroguaiaretic acid (NDGA), Nordihydroguaiaretic acid, reference compound]
- toxicity on long-term use [4]: liver damage and kidney dysfunction
